In ChEMBL document CHEMBL1136462, “The effect of remote chirality on the antibacterial activity of indolinyl, tetrahydroquinolyl and dihydrobenzoxazinyl oxazolidinones” (Bioorg Med Chem Lett, 2003):
Values after ≈ are worked out from the molar mass of the structure shown.

Assays:
Rattus norvegicus [1] = experiment: Half life of compound (9.84 mg/kg) after iv administration was determined in Sprague-Dawley rat; format: ADME, organism-based; settings: in vivo
[2] = Half life of compound (9.84 mg/kg) after po administration was determined in Sprague-Dawley rat; format: ADME, organism-based; settings: in vivo
Rattus norvegicus [3] = experiment: Clearance (Cl) of compound (9.84 mg/kg) after iv administration was determined in Sprague-Dawley rat; format: ADME, organism-based; settings: in vivo
Streptococcus pneumoniae = experiment: In vitro antibacterial activity against penicillin susceptible Streptococcus pneumoniae UC19912 (PSSP); format: functional
Haemophilus influenzae = experiment: In vitro antibacterial activity against ampicillin resistant Haemophilus influenzae 30063 (AMPR b-lactamase+); format: functional
Staphylococcus aureus [4] = experiment: In vitro antibacterial activity against methicillin susceptible Staphylococcus aureus UC19213 (MSSA); (SA1); format: functional
[5] = Tmax of compound (19.76 mg/kg) after po administration was determined in Sprague-Dawley rat; format: ADME, organism-based; settings: in vivo
[6] = Maximum plasma concentration (Cmax) of compound (9.84 mg/kg) after iv administration was determined Sprague-Dawley rat; format: ADME, organism-based; design: dose 9.84 mg/kg, route intravenous
[7] = system: Staphylococcus epidermidis; experiment: In vitro antibacterial activity against methicillin resistant Staphylococcus epidermis US 12084 (MRSE); format: functional
Moraxella catarrhalis = experiment: In vitro antibacterial activity against Moraxella catarrhalis 30607 (b-lactamase+).; format: functional
Enterococcus faecalis = experiment: In vitro antibacterial activity against vancomycin susceptible Enterococcus faecalis UC19217 (VSEF); format: functional
Rattus norvegicus [8] = experiment: Steady state volume distribution (Vss) of compound(9.84 mg/kg) after iv administration was determined in Sprague-Dawley rat; format: ADME, organism-based; settings: in vivo
[9] = Oral bioavailability of compound (19.76 mg/kg) after po administration was determined in Sprague-Dawley rat; format: ADME, organism-based; settings: in vivo
[10] = Maximum plasma concentration (Cmax) of compound (19.76 mg/kg) after po administration was determined Sprague-Dawley rat; format: ADME, organism-based; design: dose 19.76 mg/kg, route oral
Staphylococcus aureus [11] = experiment: In vitro antibacterial activity against Staphylococcus aureus UC12673 (SA2); format: functional
[12] = Half life of compound (20.73 mg/kg) after po administration was determined in Sprague-Dawley rat; format: ADME, organism-based; settings: in vivo
[13] = Clearance (Cl) of compound (9.92 mg/kg) after iv administration was determined in Sprague-Dawley rat; format: ADME, organism-based; settings: in vivo
[14] = Half life of compound (9.92 mg/kg) after iv administration was determined in Sprague-Dawley rat; format: ADME, organism-based; settings: in vivo
[15] = Steady state volume distribution (Vss) of compound after iv administration was determined in Sprague-Dawley rat; format: ADME, organism-based; settings: in vivo, read-out: Vss
[16] = Maximum plasma concentration (Cmax) of compound (9.92 mg/kg) after iv administration was determined Sprague-Dawley rat; format: ADME, organism-based; design: dose 9.92 mg/kg, route intravenous
[17] = Tmax of compound (20.73 mg/kg) after po administration was determined in Sprague-Dawley rat; format: ADME, organism-based; settings: in vivo
[18] = Maximum plasma concentration (Cmax) of compound (20.73 mg/kg) after po administration was determined Sprague-Dawley rat; format: ADME, organism-based; design: dose 20.73 mg/kg, route oral
[19] = Oral bioavailability of compound (20.73 mg/kg) after po administration was determined in Sprague-Dawley rat; format: ADME, organism-based; settings: in vivo
Mus musculus [20] = experiment: In vivo efficacy of compound to protect the Staphylococcus aureus UC9213 infected mouse from death after po administration; format: functional
[21] = Tmax of compound (25 mg/kg) after po administration was determined in Sprague-Dawley rat; format: ADME, organism-based; settings: in vivo
[22] = Clearance (Cl) of compound (10 mg/kg) after iv administration was determined in Sprague-Dawley rat; format: ADME, organism-based; settings: in vivo
[23] = Maximum plasma concentration (Cmax) of compound (25 mg/kg) after po administration was determined Sprague-Dawley rat; format: ADME, organism-based; design: dose 25 mg/kg, route oral
Mus musculus [24] = experiment: In vivo efficacy of compound to protect the Staphylococcus aureus UC9213 infected mouse from death after sc administration; format: functional

Row | Structure (SMILES) | MIC (Streptococcus pneumoniae) [µg/mL] | MIC (Haemophilus influenzae) [µg/mL] | MIC (Staphylococcus aureus [4]) [µg/mL] | MIC [7] [µg/mL] | MIC (Moraxella catarrhalis) [µg/mL] | MIC (Enterococcus faecalis) [µg/mL] | MIC (Staphylococcus aureus [11]) [µg/mL] | also measured
1 | CC(=O)NC[C@H]1CN(c2ccc3c(c2)C[C@@H](C)N3C=O)C(=O)O1 | < 0.5 | 8 (≈ 25.2 µM) | 1 (≈ 3.15 µM) | < 0.5 | 4 (≈ 12.6 µM) | 1 (≈ 3.15 µM) | 1 (≈ 3.15 µM) | T1/2 (Rattus norvegicus [1]): 102 min; half-life [2]: 48 min; CL (Rattus norvegicus [3]): 1.84 mL/min/kg; Tmax [5]: 30 min; Cmax [6]: 16100 ng/mL; Vss (Rattus norvegicus [8]): 1.27 L/kg; bioavailability [9]: 56%; Cmax [10]: 7200 ng/mL
2 | CC(=O)NC[C@H]1CN(c2ccc3c(c2)OC[C@@H](C)N3C=O)C(=O)O1 | < 1 | 64 (≈ 192 µM) | 4 (≈ 12 µM) | < 1 | 8 (≈ 24 µM) | 4 (≈ 12 µM) | 2 (≈ 6 µM) | 
3 | C/C(S)=N/C[C@H]1CN(c2ccc3c(c2)C[C@H](C)N3C=O)C(=O)O1 | < 0.5 | 32 (≈ 96 µM) | 2 (≈ 6 µM) | 1 (≈ 3 µM) | 16 (≈ 48 µM) | 2 (≈ 6 µM) | 2 (≈ 6 µM) | 
4 | CC(=O)NC[C@H]1CN(c2ccc3c(c2)C[C@@H](C)N3C(=O)CO)C(=O)O1 | 0.5 (≈ 1.44 µM) | 8 (≈ 23 µM) | 4 (≈ 11.5 µM) | 0.5 (≈ 1.44 µM) | 8 (≈ 23 µM) | 2 (≈ 5.76 µM) | 2 (≈ 5.76 µM) | half-life [12]: 168 min; clearance [13]: 24 mL/min/kg; half-life [14]: 108 min; Vd [15]: 1.28 L/kg; Cmax [16]: 15100 ng/mL; Tmax [17]: 30 min; Cmax [18]: 3800 ng/mL; bioavailability [19]: 55.4%; ED50 (Mus musculus [20]): 1.8 mg/kg
5 | CC(=O)NC[C@H]1CN(c2ccc3c(c2)CC[C@H](C)N3C=O)C(=O)O1 | < 2 | 64 (≈ 193 µM) | 8 (≈ 24.1 µM) | < 2 | 16 (≈ 48.3 µM) | 8 (≈ 24.1 µM) | 4 (≈ 12.1 µM) | 
6 | C/C(S)=N/C[C@H]1CN(c2ccc3c(c2)C[C@@H](C)N3C(=O)CO)C(=O)O1 | < 0.5 | 8 (≈ 22 µM) | < 0.5 | < 0.5 | 2 (≈ 5.5 µM) | < 0.5 | < 0.5 | 
7 | C/C(S)=N/C[C@H]1CN(c2ccc3c(c2)CC[C@H](C)N3C=O)C(=O)O1 | < 0.5 | 16 (≈ 46.1 µM) | 1 (≈ 2.88 µM) | < 0.5 | 2 (≈ 5.76 µM) | 2 (≈ 5.76 µM) | 1 (≈ 2.88 µM) | 
8 | C/C(S)=N/C[C@H]1CN(c2ccc3c(c2)CC[C@@H](C)N3C=O)C(=O)O1 | < 0.5 | 4 (≈ 11.5 µM) | < 0.5 | < 0.5 | 1 (≈ 2.88 µM) | < 0.5 | < 0.5 | 
9 | CC(=O)NC[C@H]1CN(c2ccc(N3CCOCC3)c(F)c2)C(=O)O1 [LINEZOLID] | < 0.5 | 16 (≈ 47.4 µM) |  | < 1 | 8 (≈ 23.7 µM) |  |  | Tmax [21]: 18 min; clearance [22]: 10.5 mL/min/kg; Cmax [23]: 15800 ng/mL; ED50 (Mus musculus [24]): 5.6 mg/kg
